Experimental data from PubChem BioAssay AID2060885 (Molecular Pharmacology Branch, DTP, NCI, 2025).

System: NCI-H23 complex spheroids with HUVEC/MSC, viability
Test: Anticancer human tumor NCI-H23 cell line growth inhibition [RAS];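 note: spheroids exposed to compound for 7 days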;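 for viability, T/C: 100% = DMSO vehicle control viability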
Settings: for IC50: curve of first compound; for viability, T/C: stronger effect = lower value
Outline: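 Agents were tested in combination matrices in half-log decrements from a top concentration at or near clinical Cmax (10 microM if undetermined). Targets were multi-cell spheroids of tumour lines plus HUVEC and MSC stromal cells.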

## CC1(C)CCC(Nc2ncc(C(F)(F)F)c(-c3c[nH]c4c(P(C)(C)=O)c(C#N)ccc34)n2)CN1 (configuration not stated) + C#Cc1c(F)ccc2cc(O)cc(-c3ncc4c(N5CC6CCC(C5)N6)nc(OCC56CCCN5CC(F)C6)nc4c3F)c12
Second compound 0.0316 µM
  IC50: 25.3 nM
Second compound 0.1 µM
  IC50: > 300 nM
Second compound 0.316 µM
  IC50: 13.3 nM
Second compound 1 µM
  IC50: 5.95 nM
Second compound 3.16 µM
  IC50: < 0.949 nM
Second compound 10 µM
  IC50: < 0.949 nM
Second compound 0.0316 µM, first compound 0.000949 µM
  viability, T/C: 77.4%
Second compound 0.0316 µM, first compound 0.003 µM
  viability, T/C: 95.5%
Second compound 0.0316 µM, first compound 0.00949 µM
  viability, T/C: 64.1%
Second compound 0.0316 µM, first compound 0.03 µM
  viability, T/C: 46.9%
Second compound 0.0316 µM, first compound 0.0949 µM
  viability, T/C: 42.9%
Second compound 0.0316 µM, first compound 0.3 µM
  viability, T/C: 53%
Second compound 0.1 µM, first compound 0.000949 µM
  viability, T/C: 105%
Second compound 0.1 µM, first compound 0.003 µM
  viability, T/C: 87.7%
Second compound 0.1 µM, first compound 0.00949 µM
  viability, T/C: 60.6%
Second compound 0.1 µM, first compound 0.03 µM
  viability, T/C: 46.7%
Second compound 0.1 µM, first compound 0.0949 µM
  viability, T/C: 44.5%
Second compound 0.1 µM, first compound 0.3 µM
  viability, T/C: 59.2%
Second compound 0.316 µM, first compound 0.000949 µM
  viability, T/C: 82.9%
Second compound 0.316 µM, first compound 0.003 µM
  viability, T/C: 75.6%
Second compound 0.316 µM, first compound 0.00949 µM
  viability, T/C: 52.2%
Second compound 0.316 µM, first compound 0.03 µM
  viability, T/C: 44.8%
Second compound 0.316 µM, first compound 0.0949 µM
  viability, T/C: 35.6%
Second compound 0.316 µM, first compound 0.3 µM
  viability, T/C: 40.8%
Second compound 1 µM, first compound 0.000949 µM
  viability, T/C: 83.2%
Second compound 1 µM, first compound 0.003 µM
  viability, T/C: 60.8%
Second compound 1 µM, first compound 0.00949 µM
  viability, T/C: 42.7%
Second compound 1 µM, first compound 0.03 µM
  viability, T/C: 38.2%
Second compound 1 µM, first compound 0.0949 µM
  viability, T/C: 39%
Second compound 1 µM, first compound 0.3 µM
  viability, T/C: 36.8%
Second compound 3.16 µM, first compound 0.000949 µM
  viability, T/C: 45%
Second compound 3.16 µM, first compound 0.003 µM
  viability, T/C: 37.9%
Second compound 3.16 µM, first compound 0.00949 µM
  viability, T/C: 33%
Second compound 3.16 µM, first compound 0.03 µM
  viability, T/C: 28.4%
Second compound 3.16 µM, first compound 0.0949 µM
  viability, T/C: 33%
Second compound 3.16 µM, first compound 0.3 µM
  viability, T/C: 31.4%
Second compound 10 µM, first compound 0.000949 µM
  viability, T/C: 29.7%
Second compound 10 µM, first compound 0.003 µM
  viability, T/C: 29.1%
Second compound 10 µM, first compound 0.00949 µM
  viability, T/C: 25.1%
Second compound 10 µM, first compound 0.03 µM
  viability, T/C: 21.7%
Second compound 10 µM, first compound 0.0949 µM
  viability, T/C: 19.3%
Second compound 10 µM, first compound 0.3 µM
  viability, T/C: 18.4%
